{"source": "patent US20240269128A1", "about": "“COMPOUNDS FOR TREATING OR PREVENTING ALZHEIMER'S DISEASE” (THE UNITED STATES OF AMERICA, as represented by the …, priority 2021, published 2024)", "key": {"[1]": {"system": "hippocampal CA1 synapses of APP/PS1 mice", "experiment": "Late long-term potentiation, field recordings in hippocampal slices", "set-up": "species or system mouse", "details": "for S1 fEPSP slope at the end of the experiment / potentiation of S1 fEPSP slope after STET: APP/PS1 slices"}, "[2]": {"system": "SH-SY5Y-hTau441(V337M/R406W) cells", "experiment": "Tau phosphorylation assay (Phospho(Thr231)/Total Tau)", "type": "cell-based, human", "method": "Tau Phosphorylation: SH-SY5Y-hTau441(V337M/R406W) cells were maintained in culture medium (DMEM medium, 10% FCS, 1% NEAA, 1% L-Glutamine, 100 g/mL Gentamycin, 300 μg/mL Geneticin G-418) and differentiated with 10 μM retinoic acid (RA) for 5 days changing medium every 2 to 3 days. Prior to the treatment, cells were seeded onto 24-well plates at a cell density of 2×10^5 cells per well (DIV1). Drug compounds were applied on DIV2. After 24 h of incubation (DIV3), cells on 24-well plates were harvested in 60 μL RIPA-Buffer [50 mM Tris pH 7.4, 1% Nonidet P40, 0.25% Na-deoxy-cholate, 150 mM NaCl, 1 mM EDTA supplemented with freshly added 1 μM NaF, 0.2 mM Na-ortho-vanadate, 80 μM Glycerophosphate, protease (Calbiochem) and phosphatase (Sigma) inhibitor cocktail]. Protein concentration was determined by BCA assay (Pierce, ThermoFisher) and samples were adjusted to a uniform total protein concentration. Total Tau and phosphorylated Tau were determined by immunosorbent assay from Mesoscale Discovery (Phospho(Thr231)/Total Tau Kit K15121D, Mesoscale Discovery).\nTau phosphorylation: SH-SY5Y-hTau441(V337M/R406W) cells were maintained in culture medium (DMEM medium, 10% FCS, 1% NEAA, 1% L-Glutamine, 100 μg/mL Gentamycin, 300 μg/mL Geneticin G-418) and differentiated with 10 μM retinoic acid (RA) for 5 days changing medium every 2 to 3 days. Prior to the treatment, cells were seeded onto 24-well plates at a cell density of 2×10^5 cells per well (DIV1). HCQ (25 μM) was applied on DIV2. After 24 h of incubation (DIV3), cells on 24-well plates were harvested in 60 μL RIPA-Buffer [50 mM Tris pH 7.4, 1% Nonidet P40, 0.25% Na-deoxy-cholate, 150 mM NaCl, 1 mM EDTA supplemented with freshly added 1 μM NaF, 0.2 mM Na-ortho-vanadate, 80 μM Glycerophosphate, protease (Calbiochem) and phosphatase (Sigma) inhibitor cocktail]. Protein concentration was determined by BCA assay (Pierce, ThermoFisher) and samples were adjusted to a uniform total protein concentration. Total Tau and phosphorylated Tau were determined by immunosorbent assay from Mesoscale Discovery (Phospho(Thr231)/Total Tau Kit K15121D, Mesoscale Discovery).\nTau Phosphorylation: SH-SY5Y-hTau441(V337M/R406W) cells were maintained in culture medium [DMEM medium, 10% FCS, 1% nonessential amino acids (NEAA), 1% l-glutamine, gentamycin (100 μg/ml), and geneticin G-418 (300 μg/ml)] and differentiated with 10 μM retinoic acid for 5 days changing medium every 2 to 3 days. […] Protein concentration was determined by BCA assay (Pierce, Thermo Fisher Scientific, Waltham, MA), and samples were adjusted to a uniform total protein concentration. Total tau and phosphorylated tau were determined by immunosorbent assay from Mesoscale Discovery [Phospho(Thr231)/Total Tau Kit K15121D, Mesoscale Discovery, Meso Scale Diagnostics]. […]"}, "[3]": {"system": "murine microglial cell line BV-2", "experiment": "LPS-induced neuroinflammation in BV-2 microglial cells (cytokines by MSD V-PLEX, MTT)", "type": "cell-based, mouse", "method": "Lipopolysaccharide (LPS)-Induced Neuroinflammation: The murine microglial cell line BV-2 was cultivated in DMEM medium supplemented with 10% FCS, 1% penicillin/streptomycin and 2 mM L-glutamine (culture medium). For LPS stimulation assay, 5000 BV-2 cells per well (uncoated 96 well plates) were plated out and the medium was changed to treatment medium (DMEM, 5% FCS, 2 mM L-glutamine). After changing cells to treatment medium, drug compounds were administered 1 hour before LPS stimulation (Sigma-Aldrich; L6529; 1 mg/ml stock in ddH2O, final concentration in well: 100 ng/ml (dilutions in medium)). Cells treated with vehicle, cells treated with LPS alone, as well as cells treated with LPS plus reference item (dexamethasone 10 μM, Sigma D4902) served as controls. After 24 h of stimulation, cell supernatants were collected for the cytokine measurement (V-PLEX Proinflammatory Panel 1 Mouse Kit, K15048D, Mesoscale) and cells were subjected to MTT assay.\nMTT Assay: MTT solution was added to each well in a final concentration of 0.5 mg/mL. After 2 h, the MTT containing medium was aspirated. Cells were lysed in 3% SDS and the formazan crystals were dissolved in isopropanol/HCl. Optical density was measured with a Cytation 5 (Biotek) multimode reader at wavelength 570 nm. Values were calculated as percent of control values (vehicle control or lesion control).\nAfter changing cells to treatment medium, HCQ (0.25 μM, 2.5 μM and 25 μM) was applied 1 hour before LPS stimulation (Sigma-Aldrich; L6529; 1 mg/ml stock in ddH2O, final concentration in well: 100 ng/ml (dilutions in medium))."}, "H4-hAPP cells": {"system": "H4-hAPP cells", "experiment": "Aβ secretion assay", "type": "cell-based, human", "protocol": "Aβ Secretion: H4-hAPP cells were cultivated in Opti-MEM supplemented with 10% FCS, 1% penicillin/streptomycin 200 μg/mL Hygromycin B and 2.5 μg/mL Blasticidin S. H4-hAPP cells were seeded into 96 well plates (2×10^4 cells per well). On the next day, cells in 96 well plates were treated with compounds, R.I. (DAPT 400 nM) or vehicle. 24 h later, supernatants were collected for further Aβ measurements by MSD® (V-PLEX Aβ Peptide Panel 1 (6E10) Kit, K15200E, Mesoscale Discovery).\nAβ secretion: Human APP overexpressing H4-hAPP cells were cultivated in Opti-MEM supplemented with 10% FCS, 1% penicillin/streptomycin 200 μg/mL Hygromycin B and 2.5 μg/mL Blasticidin S. H4-hAPP cells were seeded into 96 well plates (2×10^4 cells per well). On the next day, cells in 96 well plates were treated HCQ (0.25 μM, 2.5 μM and 25 μM) or the reference item (DAPT 400 nM), a γ-secretase inhibitor vehicle. 24 h later, supernatants were collected for further Aβ measurements by MSD® (V-PLEX Aβ Peptide Panel 1 (6E10) Kit, K15200E, Mesoscale Discovery).\nCultivation and treatment of H4-hAPP cells: H4-hAPP cells were thawed and cultivated in Opti-MEM supplemented with 10% FCS, 1% penicillin/streptomycin 200 μg/ml Hygromycin B and 2.5 μg/ml Blasticidin S (=culture medium). H4-hAPP cells were seeded into 96 well plates (2×10^4 cells per well). On the next day, cells in 96 well plates were treated with TUDCA (100 μM (C1), 10 μM (C2), or 1.0 μM (C3)), R.I. (DAPT 400 nM) or vehicle. Alternatively, cells in 96 well plates were treated with 25 μM HCQ/0.1 μM TUDCA (C1), 2.5 μM HCQ/100 μM TUDCA (C2), and 2.5 μM HCQ/10 μM TUDCA (C3). 24 h later, supernatants were collected for further Aβ measurements by MSD. The experiment was performed in n=6 technical replicates for all groups.\nAβ38, 40, 42 measurement: Supernatants were diluted 1:10 and analyzed for human Aβ38, 40, and 42 with MSD® 96-well MULTI-SPOT® 6E10 Abeta Triplex Assay (Mesoscale Discovery, Rockville, MD). The immune assay was carried out according to the manual and plates are read on the MESO QuickPlex SQ 120 multiplexing instrument. Analyte levels were evaluated according to adequate Aβ peptide standards (MSD) as pg per mL.\nAβ Secretion: H4-hAPP cells were cultivated in Opti-MEM supplemented with 10% FCS, 1% penicillin/streptomycin, hygromycin B (200 μg/ml), and blasticidin S (2.5 μg/ml). H4-hAPP cells were seeded into 96-well plates (2×10^4 cells per well). On the next day, cells in 96-well plates were treated with compounds, reference item [400 nM N-[N-(3,5-difluorophenacetyl-1-alanyl)]-S-phenylglycine t-butyl ester (DAPT)], or vehicle. Twenty-four hours later, supernatants were collected for further Aβ measurements by MSD [V-PLEX Aβ Peptide Panel 1 (6E10) Kit, K15200E, Mesoscale Discovery].\nCulture and treatment of H4-hAPP cells: H4-hAPP cells were thawed and cultivated in Opti-MEM supplemented with 10% FCS, 1% penicillin/streptomycin 200 μg/ml Hygromycin B and 2.5 μg/ml Blasticidin S (=culture medium). H4-hAPP cells were seeded into 96 well plates (2×10^4 cells per well). On the next day, cells in 96 well plates were treated with T.I., R.I. (DAPT 400 nM) or vehicle. 24 h later, supernatants were collected for further Aβ measurements by MSD. The experiment was performed in n=6 technical replicates for all groups.\nAβ38, 40, 42 measurement in H4-hAPP cells: Supernatants were diluted 1:10 and analyzed for human Aβ38, 40, and 42 with MSD® 96-well MULTI-SPOT® 6E10 Abeta Triplex Assay (Mesoscale Discovery). The immune assay was carried out according to the manual and plates were read on the MESO QuickPlex SQ 120. Analyte levels were evaluated according to adequate Aβ peptide standards (MSD) as pg per mL."}, "BV-2 cells": {"system": "BV-2 cells", "experiment": "Aβ1-42 clearance assay", "type": "cell-based, mouse", "details": "posterior probability of a protective effect, Bayesian dose-response model", "protocol": "AB Clearance: For the amyloid beta (Aβ) clearance assay, 20000 BV-2 cells per well (uncoated 96 well plates) were plated out. After changing cells to treatment medium, drug compounds were administered 1 hour before Aβ stimulation (Bachem 4061966; final concentration in well: 200 ng/ml (dilutions in medium)). Cells treated with vehicle and cells treated with Aβ alone served as controls. After 3 h of Aβ stimulation, cell supernatants were collected for the Aβ measurement and cells were carefully washed twice with PBS and thereafter lysed in 35 μL cell lysis buffer (50 mM Tris-HCl, pH 7.4, 150 mM NaCl, 5 mM EDTA, 1% SDS) supplemented with protease inhibitors. Supernatants and cell lysates were analyzed for human Aβ42 with MSD® V-PLEX Human Aβ42 Peptide (6E10) Kit (K151LBE, Mesoscale Discovery). The immune assay was carried out according to the manual and plates were read on the MESO QuickPlex SQ 120.\nAβ1-42 clearance: For Abeta (Aβ1-42) clearance assay, 20,000 BV-2 cells per well (uncoated 96 well plates) were plated out. After changing cells to treatment medium, HCQ (0.25 μM, 2.5 μM and 25 μM) was applied 1 hour before Aβ1-42 stimulation (Bachem 4061966; final concentration in well: 200 ng/ml (dilutions in medium)). Cells treated with vehicle (0.1% DMSO) and cells treated with Aβ1-42 alone served as controls. After 3 h of Aβ1-42 stimulation, cell supernatants were collected for the Aβ1-42 measurement and cells were carefully washed twice with PBS and thereafter lysed in 35 μL cell lysis buffer (50 mM Tris-HCl, pH 7.4, 150 mM NaCl, 5 mM EDTA, 1% SDS) supplemented with protease inhibitors. Supernatants and cell lysates were analyzed for human Aβ1-42 with MSD® V-PLEX Human Aβ42 Peptide (6E10) Kit (K151LBE, Mesoscale Discovery). The immune assay was carried out according to the manufacturer's manual and plates were read on the MESO QuickPlex SQ 120.\nAβ Clearance: 20,000 BV2 cells per well (uncoated 96-well plates were plated out. After changing cells to treatment medium, drug compounds were administered 1 hour before Aβ stimulation (final concentration in well 200 ng/ml; dilutions in medium). Cells treated with vehicle and cells treated with Aβ alone served as controls. After 3 hours of Aβ stimulation, cell supernatants were collected for the Aβ measurement and cells were carefully washed twice with PBS and thereafter lysed in 35 μl of cell lysis buffer (50 mM tris-HCl, pH 7.4, 150 mM NaCl, 5 mM EDTA, and 1% SDS) supplemented with protease inhibitors. Supernatants and cell lysates were analyzed for human Aβ42 with the MSD V-PLEX Human Aβ42 Peptide (6E10) Kit (K151LBE, Mesoscale Discovery). The immune assay was carried out according to the manual, and plates were read on MESO QuickPlex SQ 120 (Meso Scale Diagnostics, Rockville, MD).\nFor Aβ clearance assay, 20,000 BV-2 cells per well (uncoated 96 well plates) were plated out. After 24 hours, medium was changed to treatment medium (DMEM, 5% FCS, 2 mM L-glutamine) and cells were maintained in treatment medium for the remaining culture period. After changing cells to treatment medium, the test items were administered 1 hour before Aβ stimulation (Bachem 4061966; final concentration in well: 200 ng/mL (dilutions in medium)). Cells treated with vehicle, cells treated with Aβ alone, as well as wells with Aβ but no cells served as controls. All wells were handled the same way. After 3 h of Aβ stimulation, cell supernatants were collected for the Aβ measurement and cells were carefully washed twice with PBS and thereafter lysed in 35 μl cell lysis buffer (50 mM Tris-HCl, pH 7.4, 150 mM NaCl, 5 mM EDTA, 1% SDS) supplemented with protease inhibitors. Cells were incubated for 15 min at RT on a plate shaker, samples were frozen at −80° C. until further use. The experiment was performed in n=6 technical replicates for all groups. […]"}, "iPSCs": {"system": "iPSCs", "experiment": "LPS induced neuroinflammation (iPSCs)", "type": "cell-based", "details": "posterior probability of a protective effect", "protocol": "Cell-based assays: For each combination of drugs and assay, the posterior probability P(Hi|data) of protective, neutral, and adverse drug effect (formal hypotheses H1, H0, H2, respectively) were evaluated. Dose-response relationships (x-y data) were modeled with a Bayesian nonlinear regression model:\nand Bayesian estimation of the posterior density of the fold change was performed using default settings of the Markov chain Monte Carlo samples implemented by the PyMC python library. For efficient sample, each bioactivity data set was standardized such that […] corresponded to one standard deviation. Diagnostic criteria (posterior sample of fitted curves, effective sample sizes, values of the r statistic, and Markov chain standard errors) were inspected for the fit and three poorly fitted data sets out of a total of 91 data sets were excluded."}, "[4]": {"system": "hippocampal neuronal cells", "details": "Lee et al. 2019; cited from earlier work"}, "[5]": {"system": "hippocampal cell cultures", "details": "Rzemieniec et al. 2019; cited from earlier work"}}}
{"smiles": "CCN(CCO)CCCC(C)Nc1ccnc2cc(Cl)ccc12", "note": "(racemic) [HCQ racemic free base]", "values": [{"measurement": "late-LTP in APP/PS1 mice", "setting": "[1]; 25 μM HCQ racemic free base", "value": "partial rescue"}, {"measurement": "late-LTP in APP/PS1 mice", "setting": "[1]; 50 μM HCQ racemic free base", "value": "diminished initial potentiation which did not last"}, {"measurement": "late LTP in age-matched WT mice", "setting": "[1]; 50 μM HCQ racemic free base, preliminary (n=1)", "value": "partially impaired"}, {"measurement": "S1 fEPSP slope at the end of the experiment", "setting": "[1]; 25 μM HCQ racemic free base", "value": "118.003±7.753", "unit": "%"}, {"measurement": "potentiation of S1 fEPSP slope after STET", "setting": "[1]; 25 μM HCQ racemic free base", "value": "155.545±12.309", "unit": "%"}, {"measurement": "S1 fEPSP slope at the end of the experiment", "setting": "[1]; 50 μM HCQ racemic free base", "value": "119.117±8.167", "unit": "%"}, {"measurement": "potentiation of S1 fEPSP slope after STET", "setting": "[1]; 50 μM HCQ racemic free base", "value": "128.809±8.116", "unit": "%"}]}
{"smiles": "COc1ccc(S(=O)(=O)Nc2cc(-c3c(O)ccc4ccccc34)c(O)c3ccccc23)cc1", "note": "[C188-9, N-[4-hydroxy-3-(2-hydroxynaphthalen-1-yl)naphthalen-1-yl]-4-methoxybenzenesulfonamide]", "values": [{"measurement": "phosphorylated tau 231 (ptau)", "setting": "[2]; 10 μM, 24 h, relative to VC", "value": "significantly reduced"}, {"measurement": "release of IL-1β", "setting": "[3]; 0.3 μM and 0.6 μM, relative to LPS", "value": "significantly reduced"}, {"measurement": "release of IL-6", "setting": "[3]; 0.6 μM, 24 h LPS stimulation, relative to LPS", "value": "significantly reduced"}, {"measurement": "cell viability", "setting": "[3]; C188-9 in LPS assay, results not shown", "value": "no adverse effects on cell viability"}, {"measurement": "Aβ42: Aβ40 ratio", "setting": "H4-hAPP cells; 1 μM, relative to VC", "value": "significantly reduced"}, {"measurement": "endogenous Aβ1-42", "setting": "H4-hAPP cells; 1 μM, relative to VC", "value": "significantly reduced"}, {"measurement": "cell viability", "setting": "H4-hAPP cells; C188-9 in Aβ secretion assay, results not shown", "value": "no adverse effects on cell viability"}]}
{"smiles": "Cc1c[nH]c(-c2cnc(NCCNc3ccc(C#N)cn3)nc2-c2ccc(Cl)cc2Cl)n1", "note": "[CHIR]", "values": [{"measurement": "phosphorylated Tau", "setting": "[2]; reference item, compared to vehicle control", "value": "significantly reduced"}]}
{"smiles": "C[C@H](NC(=O)Cc1cc(F)cc(F)c1)C(=O)N[C@H](C(=O)OC(C)(C)C)c1ccccc1", "note": "[DAPT, N-[N-(3,5-difluorophenacetyl-1-alanyl)]-S-phenylglycine t-butyl ester]", "values": [{"measurement": "Aβ species (Aβ1-38, 1-40 and 1-42) in supernatant", "setting": "H4-hAPP cells; reference item, 400 nM, 24 h", "value": "significantly reduced all tested species"}]}
{"smiles": "c1ccc2c(Cc3c[nH]c4ccccc34)c[nH]c2c1", "note": "[DIM, 3,3′-diindolylmethane]", "values": [{"measurement": "LTP in APP/PS1 slices", "setting": "[1]; 10 μM DIM, acute application", "value": "rescues LTP"}, {"measurement": "late LTP in APP/PS1 slices", "setting": "[1]; 3-hour pre-incubation with 10 μM DIM", "value": "no longer results in rescue"}, {"measurement": "effect in LPS induced neuroinflammation (BV2 cells)", "setting": "[3]; posterior probability of a protective effect", "value": "protective"}, {"measurement": "effect in Aβ clearance (BV2 cells)", "setting": "BV-2 cells", "value": "strongly protective"}, {"measurement": "effect in LPS induced neuroinflammation (iPSCs)", "setting": "iPSCs", "value": "strongly protective"}, {"measurement": "oxidative stress-induced apoptosis", "setting": "[4]", "value": "inhibit"}, {"measurement": "ischemia-induced apoptosis and autophagy", "setting": "[5]", "value": "protect"}]}
